Assay results reported in patent publication EP0603240B1, “SAFENING HERBICIDAL PYRAZOLYLSULFONYLUREAS” (priority 1991, dated 1993).

Columns and labels:
Assay type in all cases: in vivo
[1] = system: barnyardgrass (Echinochloa crusgalli); assay: Example 19, Procedure II: Herbicide No. 1 + ERADICANE EXTRA with added antidotes
Protocol: (§1) Containers were filled and compacted with a fumigated silt loam top soil to a depth of about 1.3 cm from the top of the container. A first container was designated as an untreated control, a second container was designated as a herbicide control, and a third container was designated as a herbicide + antidote test container. Each of the containers was seeded with a crop species. A measured amount of herbicide dispersed or dissolved in acetone was applied to a measured quantity of soil. To this same quantity of soil treated with herbicide, there was added a measured amount of antidote dispersed or dissolved in acetone. The quantity of soil treated with the herbicide and antidote was thoroughly mixed to incorporate the herbicide and antidote in the soil uniformly. The seed bed in the third container of soil was covered with the soil treated with the herbicide and antidote and the container was leveled. For each test series, the seed beds of the first and second containers were likewise covered by soil layers. the cover layer of the first container was not treated with herbicide or antidote.
(§2) The containers were then placed on a bench in a greenhouse and sub-irrigated as required for the duration of the test. […] Plant response is measured in terms of percent injury. Antidote efficacy is indicated as the difference in plant injury by the herbicide(s) without the antidote and with the antidote.
(§3) This procedure is the same as Procedure I, but modified in the manner that after incorporation of the chemicals (herbicide and antidote) the containers with the covered seedbed were treated with an initial overhead irrigation equivalent to 0.6 cm rainfall, then subsequently sub-irrigated as required on greenhouse benches.
(§4) In the series of greenhouse tests described below, for routine screening purposes the herbicide/antidote compositions were tested in crop/weed combinations involving corn as the crop and either or both of the weeds barnyardgrass (Echinochloa crusgalli), a monocotyledonous weed, and velvetleaf (Abutilon theophrasti), a dicotyledonous weed. In the tables below, these weeds are indicated by the symbols "BYG" and "VL", respectively.
(§5) In the test reported in this example, the herbicidal composition was similar to that used in Example 16 in that Herbicide No. 1 was combined with EPTC (Herbicide No. 4) as a co-herbicide and the antidotes included Nos. 1, 2, 7, 13 and 15. However, in this test the EPTC was introduced as a formulation of ERADICANE (EPTC + the antidote R-25788, i.e., Antidote No. 1) at an application rate of 8.96 kg/ha. Thus, in this test two antidotes were present, viz. R-25788 and one of the auxilliary antidotes, No. 2, 13 and 15.
(§6) The test reported in this example was performed in the same manner and with the same antidotes used in Example 18, the only difference being the substitution of the commercial herbicidal product ERADICANE® EXTRA for ERADICANE®. ERADICANE EXTRA is a formulation containing both an antidote, i.e., R-29148 (Antidote No. 5 herein), and an extender, dietholate.

[2] = system: velvetleaf (Abutilon theophrasti); assay: as above
Protocol: as §1, §2, §3, §4, §5, §6

[3] = system: barnyardgrass (Echinochloa crusgalli); assay: Example 7, Procedure II: Herbicide No. 1 + metolachlor (No. 12) with antidotes
Protocol: as §1, §2, §3, §4
(§7) In this example, Procedure II described above was followed. The data from the tests in this example is shown in Table 6 and represents averages of duplicate replications.
(§8) The tests in this example followed the same procedure and antidotes used in Example 6. However, Herbicide No. 12 (metolachlor) was used as the co-herbicide with Herbicide No. 1.

[4] = system: velvetleaf (Abutilon theophrasti); assay: as above
Protocol: as §1, §2, §3, §4, §7, §8

[5] = system: barnyardgrass (Echinochloa crusgalli); assay: Example 18, Procedure II: Herbicide No. 1 + ERADICANE (EPTC + R-25788) with auxiliary antidotes
Protocol: as §1, §2, §3, §4, §5
(§9) Test procedures were those of Procedure II above.

[6] = system: velvetleaf (Abutilon theophrasti); assay: as above
Protocol: as §1, §2, §3, §4, §5, §9

[7] = system: barnyardgrass (Echinochloa crusgalli); assay: Example 10, Procedure II: Herbicide No. 1 + propachlor (No. 5) with antidotes
Protocol: as §1, §2, §3, §4
(§10) In this test, the safening effect of various antidotes on the herbicidal combination of Herbicide No. 1 and another α-chloroacetanilide co-herbicide, propachlor, (Herbicide No. 5) was investigated. Propachlor is the active ingredient in the commercial herbicide RAMROD®. Procedure II was also used in this test as in the preceding example.

[8] = system: velvetleaf (Abutilon theophrasti); assay: as above
Protocol: as §1, §2, §3, §4, §10

[9] = system: barnyardgrass (Echinochloa crusgalli); assay: Example 11, Procedure II: Herbicide No. 1 + metazachlor (No. 14) with antidotes
Protocol: as §1, §2, §3, §4
(§11) In this example, yet another α-chloroacetanilide co-herbicide, metazachlor (Herbicide No. 14) was combined with Herbicide No. 1 for investigation of the effect of various safeners on that composition. Metazachlor is the active ingredient in the commercial herbicide BUTISAN® S, used here as a 500 g/L formulation.

[10] = system: velvetleaf (Abutilon theophrasti); assay: as above
Protocol: as §1, §2, §3, §4, §11

[11] = system: corn; assay: Example 8, Procedure II: Herbicide No. 1 + butachlor (No. 9) with antidotes
Protocol: as §1, §2, §3
In this test, the efficacy of the same five antidotes used in Examples 6 and 7 was investigated in compositions comprising Herbicide No. 1 and as a co-herbicide, butachlor (Herbicide No. 9), active ingredient in MACHETE® herbicide, a leading commercial rice herbicide. The test procedure used in this example was the same as that in Examples 6 and 7.

[12] = Herbicide No.1 0.56 kg/ha + ERADICANE EXTRA 8.96 kg/ha, antidote 2.24 kg/ha
[13] = Herbicide No.1 0.56 kg/ha + ERADICANE EXTRA 8.96 kg/ha, antidote 8.96 kg/ha
[14] = Herbicide No.1 1.12 kg/ha + ERADICANE EXTRA 8.96 kg/ha, antidote 2.24 kg/ha
[15] = Herbicide No.1 1.12 kg/ha + ERADICANE EXTRA 8.96 kg/ha, antidote 8.96 kg/ha
[16] = Herbicide No.1 0.14 + No.12 3.36 kg/ha + antidote 2.24 kg/ha
[17] = Herbicide No.1 0.14 + No.12 3.36 kg/ha + antidote 8.96 kg/ha
[18] = Herbicide No.1 0.56 + No.12 3.36 kg/ha + antidote 2.24 kg/ha
[19] = Herbicide No.1 0.56 + No.12 3.36 kg/ha + antidote 8.96 kg/ha
[20] = Herbicide No.1 0.56 kg/ha + ERADICANE 8.96 kg/ha, antidote 2.24 kg/ha
[21] = Herbicide No.1 0.56 kg/ha + ERADICANE 8.96 kg/ha, antidote 8.96 kg/ha
[22] = Herbicide No.1 1.12 kg/ha + ERADICANE 8.96 kg/ha, antidote 2.24 kg/ha
[23] = Herbicide No.1 1.12 kg/ha + ERADICANE 8.96 kg/ha, antidote 8.96 kg/ha
[24] = Herbicide No.1 0.14 kg/ha + Herbicide No.5 4.48 kg/ha, antidote rate 2.24 kg/ha
[25] = Herbicide No.1 0.14 kg/ha + Herbicide No.5 4.48 kg/ha, antidote rate 8.96 kg/ha
[26] = Herbicide No.1 0.56 kg/ha + Herbicide No.5 4.48 kg/ha, antidote rate 2.24 kg/ha
[27] = Herbicide No.1 0.56 kg/ha + Herbicide No.5 4.48 kg/ha, antidote rate 8.96 kg/ha
[28] = Herbicide No.1 0.56 kg/ha + Herbicide No.14 3.36 kg/ha, antidote rate 2.24 kg/ha
[29] = Herbicide No.1 0.56 kg/ha + Herbicide No.14 3.36 kg/ha, antidote rate 8.96 kg/ha
[30] = Herbicide No.1 1.12 kg/ha + Herbicide No.14 3.36 kg/ha, antidote rate 2.24 kg/ha
[31] = Herbicide No.1 1.12 kg/ha + Herbicide No.14 3.36 kg/ha, antidote rate 8.96 kg/ha

O=C1OC(=O)c2cccc3cccc1c23 [compound 2]
% Injury BYG [1, 12]: 90% | % Injury BYG [1, 13]: 90% | % Injury BYG [1, 14]: 85% | % Injury BYG [1, 15]: 85% | % Injury VL [2, 12]: 75% | % Injury VL [2, 13]: 75% | % Injury VL [2, 14]: 85% | % Injury VL [2, 15]: 75% | % Injury BYG [3, 16]: 100% | % Injury BYG [3, 17]: 100% | % Injury BYG [3, 18]: 100% | % Injury BYG [3, 19]: 100% | % Injury VL [4, 16]: 75% | % Injury VL [4, 17]: 75% | % Injury VL [4, 18]: 80% | % Injury VL [4, 19]: 85% | % Injury BYG [5, 20]: 93% | % Injury BYG [5, 21]: 85% | % Injury BYG [5, 22]: 85% | % Injury BYG [5, 23]: 95% | % Injury VL [6, 20]: 80% | % Injury VL [6, 21]: 93% | % Injury VL [6, 22]: 70% | % Injury VL [6, 23]: 75% | % Injury BYG [7, 24]: 100% | % Injury BYG [7, 25]: 99% | % Injury BYG [7, 26]: 99% | % Injury BYG [7, 27]: 99% | % Injury VL [8, 24]: 60% | % Injury VL [8, 25]: 80% | % Injury VL [8, 26]: 75% | % Injury VL [8, 27]: 80% | % Injury BYG [9, 28]: 99% | % Injury BYG [9, 29]: 99% | % Injury BYG [9, 30]: 100% | % Injury BYG [9, 31]: 100% | % Injury VL [10, 28]: 85% | % Injury VL [10, 29]: 90% | % Injury VL [10, 30]: 97% | % Injury VL [10, 31]: 85% | % Injury Corn ([11]; Herbicide No.1 0.14 + No.9 2.24 kg/ha + antidote 2.24 kg/ha): 15% | % Injury Corn ([11]; Herbicide No.1 0.14 + No.9 2.24 kg/ha + antidote 8.96 kg/ha): 15% | % Injury Corn ([11]; Herbicide No.1 0.56 + No.9 2.24 kg/ha + antidote 2.24 kg/ha): 25% | % Injury Corn ([11]; Herbicide No.1 0.56 + No.9 2.24 kg/ha + antidote 8.96 kg/ha): 20%
